The source made the active and inactive calls.
Key:
[1] = anti-trypanosomal activity in BESM host cells – imaging, CA-I/72 strain, bovine embryo skeletal muscle, dry powder, dose response (AID 651885); type: functional, cell-based
[2] = IGROV1 cell killing – plate reader, dry powder samples, PAX8 inhibitor project, dose response (AID 743043); type: functional, cell-based; conditions: IGROV-1
Paired box protein Pax-8 = Paired box protein Pax-8 (Homo sapiens, UniProt Q06710); experiment: PAX8 transcriptional activity inhibition in RMG-I – RMG-I cells, luciferase, cherry-pick, dose response (AID 687027); type: functional, cell-based;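 also: luciferase reporter driven by Pax8 target thyroperoxidase promoter measured by SteadyGlo luminescence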
[3] = viability loss in HEK293 cells – cell-based, plate reader, cherry-picked samples, cytotoxicity control, dose response (AID 743446); type: functional
[4] = toxicity toward HepG2 liver cells – cell-based, plate reader, cherry-pick, antagonist series, cytotoxicity control, dose response (AID 743416); type: functional
[5] = A549 cell cytotoxicity, dose response, cytotoxicity control, plate reader, cherry-pick, antagonist series (AID 743412); type: functional, cell-based
[6] = OVCAR8 cell viability loss – plate reader, dry powder samples, PAX8 project, dose response (AID 743197); type: functional, cell-based; conditions: OVCAR-8
[7] = OVCAR-3 cell viability loss – plate reader, dry powder samples, PAX8 inhibitor project, dose response (AID 743044); type: functional, cell-based
[8] = A549 cell viability loss – cherry-picked samples, cytotoxicity control, dose response (AID 1053184); type: functional, cell-based
[9] = toxicity toward immortalized ovarian surface epithelium – cell-based, plate reader, dry powder samples, cytotoxicity control for PAX8 inhibitor project, dose response (AID 743045); type: functional
[10] = HepG2 cell viability loss – cherry-picked samples, cytotoxicity control, dose response (AID 1053183); type: functional, cell-based
[11] = blockade of melanocortin 4 receptor signaling – cell-based, plate reader, cherry pick, counter-screen for LGR2 antagonist project, dose response (AID 743444); type: functional;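 also: transfected HEK 293 cells stimulated with alpha-MSH peptide; potency of inhibitors of the alpha-MSH evoked signal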
[12] = blockers of bursicon-stimulated LGR2 cAMP reporter – cell-based, HEK293, CRE-luciferase reporter, cherry pick, set 2, dose response (AID 743343); type: functional;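 also: transfected cells were stimulated with diluted bursicon conditioned medium after compound addition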
[13] = HEK293 cell viability loss – cherry-picked samples, cytotoxicity control, dose response (AID 1053185); type: functional, cell-based
[14] = biological target: T1, Polyadenylate-binding protein 1 (Homo sapiens, UniProt P11940); experiment: MLLE binding blockers, Cy5 peptide tracer – biochemical, fluorescence polarization, Cy5-PAM2 peptide, secondary, miRNA deadenylation inhibitor project, dose response (AID 602260); type: functional; conditions: read-out: IC50_Mean
[15] = biological target: SWI/SNF-related matrix-associated actin-dependent regulator of chromatin subfamily A member 2 (Homo sapiens, UniProt P51531); experiment: Luminescence-based cell-based high throughput dose response assay to identify activators of the function of SWI/SNF related, matrix associated, actin dependent regulator of chromatin, subfamily a, member 2 (SMARCA2, BRM).; type: functional
[16] = biological target: T1, Polyadenylate-binding protein 1; experiment: MLLE domain peptide-binding blockers, IC50 – biochemical, fluorescence polarization, FITC-PAM2 peptide, dose response (AID 602259); type: functional; conditions: read-out: IC50_Mean
[17] = Counterscreen for activators of the function of SWI/SNF related, matrix associated, actin dependent regulator of chromatin, subfamily a, member 2 (SMARCA2, BRM): Luminescence-based cell-based high throughput dose response assay to identify non-selective compounds using the VP16 reporter assay.; type: functional
cells [18] = type: functional, cell-based
[19] = biological target: T2, Nuclear receptor subfamily 0 group B member 1 (Homo sapiens, UniProt P51843); type: functional, cell-based;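 also: HEK293T cells transfected with SF-1 and DAX-1 plus StAR promoter luciferase reporter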
T2 sequence (P51843 whole entry): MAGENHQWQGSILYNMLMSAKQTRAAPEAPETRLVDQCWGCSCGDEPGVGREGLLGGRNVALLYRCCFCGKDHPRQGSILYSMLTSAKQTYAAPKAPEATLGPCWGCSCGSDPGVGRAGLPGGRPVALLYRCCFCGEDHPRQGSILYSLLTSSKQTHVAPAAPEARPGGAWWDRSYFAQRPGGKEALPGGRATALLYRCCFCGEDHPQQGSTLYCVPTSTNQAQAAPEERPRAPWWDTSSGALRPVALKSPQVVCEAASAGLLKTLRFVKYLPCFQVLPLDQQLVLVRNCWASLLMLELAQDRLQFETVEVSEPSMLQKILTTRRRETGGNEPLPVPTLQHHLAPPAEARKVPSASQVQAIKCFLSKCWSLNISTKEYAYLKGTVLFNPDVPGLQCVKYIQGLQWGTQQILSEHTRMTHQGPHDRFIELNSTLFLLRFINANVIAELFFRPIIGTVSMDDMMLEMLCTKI

[20] = Cytotoxicity screening for potential Inhibitors of Bacterial Capsule Biogenesis (4).; type: functional
[21] = cell viability loss, ATP luminescence – CellTiter-Glo, 24 h, powder samples, set 7, cytotoxicity control for SR-BI HDL uptake inhibitor project, dose response (AID 624026); type: functional, cell-based
[22] = biological target: T3, Scavenger receptor class B member 1 (Mus musculus, UniProt Q61009); experiment: blockers of DiI-HDL lipid transfer via SR-BI – cell-based, ldlA[mSR-BI] CHO, DiI fluorescence, dry powder, set 10, dose response (AID 624029); type: functional
T3 sequence (Q61009 whole entry): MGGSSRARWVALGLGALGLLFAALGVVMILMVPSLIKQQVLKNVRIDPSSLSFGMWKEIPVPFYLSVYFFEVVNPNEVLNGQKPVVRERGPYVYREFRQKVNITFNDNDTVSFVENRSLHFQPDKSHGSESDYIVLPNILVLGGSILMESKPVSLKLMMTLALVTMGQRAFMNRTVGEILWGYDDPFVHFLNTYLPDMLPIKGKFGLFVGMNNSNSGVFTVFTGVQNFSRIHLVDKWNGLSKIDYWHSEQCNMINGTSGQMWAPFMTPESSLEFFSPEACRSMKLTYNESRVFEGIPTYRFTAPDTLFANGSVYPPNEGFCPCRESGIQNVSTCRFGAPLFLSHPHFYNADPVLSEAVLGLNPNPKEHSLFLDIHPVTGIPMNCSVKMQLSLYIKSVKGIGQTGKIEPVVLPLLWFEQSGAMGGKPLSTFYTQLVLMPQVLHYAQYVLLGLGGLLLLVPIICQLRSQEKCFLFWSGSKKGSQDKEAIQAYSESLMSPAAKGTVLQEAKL

[23] = microbe, parasite or virus in culture; type: functional; conditions: Mycobacterium tuberculosis
[24] = biological target: COUP transcription factor 2 (Homo sapiens, UniProt P24468); experiment: Luminescence-based cell-based high throughput dose response assay to identify inhibitors of COUP-TFII (NR2F2).; type: functional;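 also: HEK293 cells transiently cotransfected with COUP-TFII expression vector and reporter; luciferase reporter luminescence driven by COUP-TFII from the pX2-168 reporter plasmid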
[25] = biological target: Metabotropic glutamate receptor 3 (Rattus norvegicus, UniProt P31422); experiment: inhibition of rat mGlu3 glutamate signaling – HEK/GIRK cells, thallium flux, dose response (AID 651839); type: functional
cells [26] = type: functional, cell-based; conditions: HEK-CNG
Galanin receptor type 3 = Galanin receptor type 3 (Homo sapiens, UniProt O60755); experiment: Fluorescence-based cell-based primary high throughput dose response assay to identify antagonists of the Galanin Receptor 3 (GalR3).; type: functional
Vero = experiment: viability loss in Vero cells – cell-based, plate reader, cherry-pick samples, cytotoxicity control, dose response (AID 687020); type: functional; conditions: Chlorocebus sabaeus
A549 = experiment: viability loss in A549 cells – cell-based, plate reader, cherry-pick samples, cytotoxicity control, dose response (AID 687028); type: functional; conditions: Homo sapiens
cells [27] = conditions: HEK293
cells [28] = conditions: A549
[29] = blockers of HIV-1 envelope-mediated cell-cell fusion – cherry-pick, dose response (AID 652057); type: functional, cell-based
HepG2 = experiment: viability loss in HepG2 hepatoma cells – cell-based, cherry-picks, set 2, cytotoxicity control, dose response (AID 687002); type: functional; conditions: Homo sapiens
[30] = viability loss in MITF-independent A375 cells – cell-based, CellTiter-Glo luminescence, dry powder, set 2, counter-screen for MITF inhibitor project, dose response (AID 624489); type: functional; conditions: A-375;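 also: actives are compounds lowering A375 viability meaning general cytotoxicity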
[31] = cytotoxicity in MITF-independent A375 cells – cell-based, CellTiter-Glo luminescence, dry powder, set 4, counter-screen for MITF inhibitor project, dose response (AID 624364); type: functional; conditions: A-375;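 also: A375 melanoma cells are MITF independent so this is a counter screen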
[32] = biological target: T3, Scavenger receptor class B member 1; experiment: mouse SR-BI DiI-HDL transfer blockers – ldlA[mSR-BI] CHO cells, fluorescence plate reader, dry powder, set 9, dose response (AID 623880); type: functional, cell-based
[33] = viability loss in HEK293 kidney cells – cell-based, cherry-picks, set 5, cytotoxicity control, dose response (AID 1053117); type: functional
[34] = viability loss in HepG2 hepatoma cells – cell-based, cherry-picks, set 5, cytotoxicity control, dose response (AID 1053118); type: functional
[35] = viability loss in A549 lung cancer cells – cell-based, cherry-picks, […], cytotoxicity control, dose response (AID 1053119); type: functional
[36] = Late stage assay provider results from the probe development effort to identify selective inhibitors of heat shock protein 90 (HSP90): Absorbance-based cell proliferation assay in SKBR3 cells.; type: functional; conditions: SK-BR-3
[37] = Late stage assay provider results from the probe development effort to identify selective inhibitors of heat shock protein 90 (HSP90): Absorbance-based cell proliferation assay in MCF7 cells.; type: functional
[38] = rescue of ΔF508 CFTR function, airway epithelium – human bronchial epithelial cells, plate reader, cherry-pick, two tests, dose response (AID 743267); type: functional, cell-based
[39] = biological target: T4, Endoribonuclease toxin MazF (Escherichia coli K-12, UniProt P0AE70); experiment: substrate-only fluorescence increase artefacts – biochemical, single-stranded RNase substrate, counter-screen for MazEF activator project, dose response (AID 588502); type: functional
T4 sequence (P0AE70 whole entry): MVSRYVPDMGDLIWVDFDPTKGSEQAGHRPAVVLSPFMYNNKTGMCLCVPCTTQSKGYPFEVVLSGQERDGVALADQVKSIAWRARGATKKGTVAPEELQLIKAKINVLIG

[40] = biological target: T4, Endoribonuclease toxin MazF; experiment: activation of MazEF endoribonuclease cleavage – biochemical, fluorescence, single-stranded RNA substrate, uHTS hits, dose response (AID 588481); type: functional
cells [41] = experiment: cells

T1 sequence (P11940 whole entry): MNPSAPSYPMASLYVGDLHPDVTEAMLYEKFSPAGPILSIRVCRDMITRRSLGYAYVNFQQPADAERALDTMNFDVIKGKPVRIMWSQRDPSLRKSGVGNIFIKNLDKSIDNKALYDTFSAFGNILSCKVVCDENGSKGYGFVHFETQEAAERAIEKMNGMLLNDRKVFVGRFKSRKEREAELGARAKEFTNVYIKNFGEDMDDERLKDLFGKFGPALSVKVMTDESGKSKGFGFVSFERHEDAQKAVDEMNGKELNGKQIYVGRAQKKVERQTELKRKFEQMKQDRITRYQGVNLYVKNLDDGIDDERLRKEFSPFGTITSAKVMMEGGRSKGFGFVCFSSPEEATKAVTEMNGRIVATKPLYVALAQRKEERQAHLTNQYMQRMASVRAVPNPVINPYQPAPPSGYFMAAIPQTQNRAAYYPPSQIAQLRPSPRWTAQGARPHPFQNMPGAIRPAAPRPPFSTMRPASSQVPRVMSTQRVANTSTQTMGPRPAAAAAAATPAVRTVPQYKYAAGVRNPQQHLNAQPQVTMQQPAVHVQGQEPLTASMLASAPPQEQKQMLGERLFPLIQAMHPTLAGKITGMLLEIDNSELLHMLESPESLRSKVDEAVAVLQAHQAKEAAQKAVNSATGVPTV
Chain of Paired box protein Pax-8 (Q06710 whole entry): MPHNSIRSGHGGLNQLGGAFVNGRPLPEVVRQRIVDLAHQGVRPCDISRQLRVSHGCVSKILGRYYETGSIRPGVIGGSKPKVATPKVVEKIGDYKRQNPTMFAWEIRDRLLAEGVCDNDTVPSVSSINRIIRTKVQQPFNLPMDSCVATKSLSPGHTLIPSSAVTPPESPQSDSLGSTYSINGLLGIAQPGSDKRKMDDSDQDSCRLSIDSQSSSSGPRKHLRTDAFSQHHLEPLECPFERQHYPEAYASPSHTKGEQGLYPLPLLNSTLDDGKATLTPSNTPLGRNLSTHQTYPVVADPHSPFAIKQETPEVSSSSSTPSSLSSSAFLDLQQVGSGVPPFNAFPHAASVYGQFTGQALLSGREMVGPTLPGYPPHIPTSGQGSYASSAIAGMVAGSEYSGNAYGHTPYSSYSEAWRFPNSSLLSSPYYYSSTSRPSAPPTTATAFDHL
Chain of Metabotropic glutamate receptor 3 (P31422 whole entry): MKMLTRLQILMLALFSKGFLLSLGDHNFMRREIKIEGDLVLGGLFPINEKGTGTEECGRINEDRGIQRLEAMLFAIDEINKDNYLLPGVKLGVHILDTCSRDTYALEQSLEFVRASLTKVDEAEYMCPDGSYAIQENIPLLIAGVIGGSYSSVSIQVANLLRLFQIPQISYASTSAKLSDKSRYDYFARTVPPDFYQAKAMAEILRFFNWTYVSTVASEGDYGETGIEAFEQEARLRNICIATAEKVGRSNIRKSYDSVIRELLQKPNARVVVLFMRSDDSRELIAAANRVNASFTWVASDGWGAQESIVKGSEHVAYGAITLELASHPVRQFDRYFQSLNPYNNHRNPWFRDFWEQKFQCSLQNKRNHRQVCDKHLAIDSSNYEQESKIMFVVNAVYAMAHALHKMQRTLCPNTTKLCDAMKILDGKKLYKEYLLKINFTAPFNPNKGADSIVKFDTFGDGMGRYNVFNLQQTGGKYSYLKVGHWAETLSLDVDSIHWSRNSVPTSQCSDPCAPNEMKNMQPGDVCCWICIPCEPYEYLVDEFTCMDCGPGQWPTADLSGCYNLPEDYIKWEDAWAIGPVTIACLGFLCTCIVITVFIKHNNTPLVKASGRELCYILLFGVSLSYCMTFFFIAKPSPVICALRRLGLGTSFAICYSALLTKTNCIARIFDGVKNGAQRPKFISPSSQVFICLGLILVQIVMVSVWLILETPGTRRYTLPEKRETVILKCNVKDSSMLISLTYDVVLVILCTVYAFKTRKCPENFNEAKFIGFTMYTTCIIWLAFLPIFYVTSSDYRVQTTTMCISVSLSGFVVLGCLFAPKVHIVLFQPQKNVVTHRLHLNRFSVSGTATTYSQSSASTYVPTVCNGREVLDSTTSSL
Chain of SWI/SNF-related matrix-associated actin-dependent regulator of chromatin subfamily A member 2 (P51531 whole entry, the tested form may be a part): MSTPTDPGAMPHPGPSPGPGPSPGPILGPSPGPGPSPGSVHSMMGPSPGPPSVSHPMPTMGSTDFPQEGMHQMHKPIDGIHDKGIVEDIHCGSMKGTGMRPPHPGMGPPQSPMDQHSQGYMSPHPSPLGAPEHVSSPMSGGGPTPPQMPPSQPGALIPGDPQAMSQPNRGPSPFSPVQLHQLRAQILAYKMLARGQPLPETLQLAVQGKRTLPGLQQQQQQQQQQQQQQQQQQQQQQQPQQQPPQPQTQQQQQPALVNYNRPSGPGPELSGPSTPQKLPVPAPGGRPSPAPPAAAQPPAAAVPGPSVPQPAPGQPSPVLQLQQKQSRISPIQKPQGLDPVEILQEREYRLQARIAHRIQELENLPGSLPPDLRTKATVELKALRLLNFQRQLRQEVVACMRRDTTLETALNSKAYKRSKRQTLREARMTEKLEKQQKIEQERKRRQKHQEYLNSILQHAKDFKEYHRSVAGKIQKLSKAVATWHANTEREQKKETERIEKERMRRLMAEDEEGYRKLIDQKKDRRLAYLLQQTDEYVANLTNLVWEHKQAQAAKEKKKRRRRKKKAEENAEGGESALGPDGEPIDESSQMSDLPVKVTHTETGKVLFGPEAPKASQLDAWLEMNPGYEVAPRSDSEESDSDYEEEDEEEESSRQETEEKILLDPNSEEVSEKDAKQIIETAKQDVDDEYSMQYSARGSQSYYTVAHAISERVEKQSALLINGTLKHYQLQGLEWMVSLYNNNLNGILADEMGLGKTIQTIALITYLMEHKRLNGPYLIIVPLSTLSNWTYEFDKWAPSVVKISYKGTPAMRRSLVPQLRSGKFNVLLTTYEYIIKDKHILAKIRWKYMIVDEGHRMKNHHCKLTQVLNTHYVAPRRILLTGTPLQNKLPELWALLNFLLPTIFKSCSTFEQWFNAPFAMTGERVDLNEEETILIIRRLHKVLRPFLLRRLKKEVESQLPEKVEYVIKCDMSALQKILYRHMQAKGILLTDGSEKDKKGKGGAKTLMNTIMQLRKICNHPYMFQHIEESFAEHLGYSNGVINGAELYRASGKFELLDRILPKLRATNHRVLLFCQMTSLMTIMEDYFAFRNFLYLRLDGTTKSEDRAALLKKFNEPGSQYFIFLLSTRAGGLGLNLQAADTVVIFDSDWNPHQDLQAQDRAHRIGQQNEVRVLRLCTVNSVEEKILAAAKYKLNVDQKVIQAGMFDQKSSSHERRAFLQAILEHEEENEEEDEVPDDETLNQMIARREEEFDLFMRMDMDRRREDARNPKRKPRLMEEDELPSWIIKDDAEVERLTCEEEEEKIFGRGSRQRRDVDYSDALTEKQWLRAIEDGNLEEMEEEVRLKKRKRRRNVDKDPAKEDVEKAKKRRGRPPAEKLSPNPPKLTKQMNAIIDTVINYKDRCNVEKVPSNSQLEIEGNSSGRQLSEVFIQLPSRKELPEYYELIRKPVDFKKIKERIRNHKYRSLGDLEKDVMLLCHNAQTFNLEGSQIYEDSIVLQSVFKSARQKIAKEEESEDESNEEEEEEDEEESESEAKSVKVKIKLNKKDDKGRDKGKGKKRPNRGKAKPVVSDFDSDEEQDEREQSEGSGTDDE
Chain of COUP transcription factor 2 (P24468 whole entry): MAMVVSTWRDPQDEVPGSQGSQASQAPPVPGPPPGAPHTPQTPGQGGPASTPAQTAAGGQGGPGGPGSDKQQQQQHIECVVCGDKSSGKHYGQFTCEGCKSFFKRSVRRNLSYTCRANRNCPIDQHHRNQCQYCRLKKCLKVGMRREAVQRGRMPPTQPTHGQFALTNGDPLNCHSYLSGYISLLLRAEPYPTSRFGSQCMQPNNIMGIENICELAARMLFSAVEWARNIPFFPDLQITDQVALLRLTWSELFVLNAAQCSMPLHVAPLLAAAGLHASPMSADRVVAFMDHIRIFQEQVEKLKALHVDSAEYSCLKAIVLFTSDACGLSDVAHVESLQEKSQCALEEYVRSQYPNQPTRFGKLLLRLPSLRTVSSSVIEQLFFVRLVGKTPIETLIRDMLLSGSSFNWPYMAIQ
Chain of Galanin receptor type 3 (O60755 whole entry): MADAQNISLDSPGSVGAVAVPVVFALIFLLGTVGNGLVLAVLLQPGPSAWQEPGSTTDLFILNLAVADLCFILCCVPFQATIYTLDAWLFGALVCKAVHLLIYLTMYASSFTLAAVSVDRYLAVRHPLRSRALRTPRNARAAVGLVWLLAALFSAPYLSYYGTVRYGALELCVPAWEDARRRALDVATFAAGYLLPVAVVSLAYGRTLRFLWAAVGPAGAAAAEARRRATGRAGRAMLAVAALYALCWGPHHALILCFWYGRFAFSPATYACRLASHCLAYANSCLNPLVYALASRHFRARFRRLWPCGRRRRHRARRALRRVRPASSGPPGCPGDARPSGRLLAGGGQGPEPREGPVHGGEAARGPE

C[C@@H]1CN([C@@H](C)CO)C(=O)c2cccc(NC(=O)c3ccncc3)c2O[C@H]1CN(C)C
IC50 [1]: > 20 µM (inactive)

Cc1ccccc1S(=O)(=O)N1C[C@@H]2N[C@H](C1)[C@H]2c1ccc(-c2cccc(C#N)c2)cc1
AC50 [2]: 20.5 µM (active)
AC50 (Paired box protein Pax-8): 3.75 µM (active)
AC50 [3]: 20.4 µM (active)
AC50 [4]: 9.35 µM (active)
AC50 [5]: 7.87 µM (active)
AC50 [6]: 39.1 µM (active)
AC50 [7]: 21.7 µM (active)
AC50 [8]: 36.5 µM (active)
AC50 [9]: 51.4 µM (active)
AC50 [10]: 31.9 µM (active)
AC50 [11]: 14.3 µM (active)
AC50 [12]: 14.8 µM (active)
AC50 [13]: 35.5 µM (active)

Cn1sccc1=O
IC50 [14]: > 66 µM (inactive)
EC50 [15]: > 91.2 µM (inactive)
IC50 [16]: > 66 µM (inactive)
EC50 [17]: > 91.2 µM (inactive)

Cc1ccc(NC(=O)c2ccc3snnc3c2)cc1C
IC50 (cells [18]): > 67.6 µM (inactive)
IC50 [19]: > 67.6 µM (inactive)

COc1cc(NC(=O)c2ccc3nc(N)sc3c2)ccn1
CC50 [20]: 172 µM (active)

CC(C)NC(=O)Nc1ccc2c(c1)C(=O)N([C@@H](C)CO)C[C@H](C)[C@@H](CN(C)S(=O)(=O)c1ccc(Cl)cc1)O2
AC50 [21]: > 70 µM (inactive)
AC50 [22]: > 70 µM (inactive)

C/C(=N\NC(N)=S)C1C2C3CC4C5CC(C42)C1C53 (configuration not stated)
CC50 [23]: > 40 µM (active)
IC50 [24]: 6.4 µM (active)

COc1ccc(C#Cc2ccc(C(=O)N3CCC(CO)C3)cc2)c(F)c1 (configuration not stated)
IC50 [25]: 6.85 µM (active)

COc1cccc2[nH]c3c(N4CCCC(C)C4)ncnc3c12 (configuration not stated)
EC50 (cells [26]): > 29.9 µM (inactive)
IC50 (Galanin receptor type 3): 400 nM (active)

COc1ccccc1C(=O)N1[C@@H](C(C)C)COc2cc(Br)ccc2S1(=O)=O
AC50 (Vero): 28 µM (active)
AC50 (A549): 24.4 µM (active)

C=CCN1C(=S)CC(c2ccccc2)=Nc2ccccc21
AC50 (cells [27]): > 52 µM (inactive)
AC50 (cells [28]): > 52 µM (inactive)
AC50 [29]: 47.9 µM (active)

O=C(CSc1ncnc2c1cnn2-c1ccccc1)Nc1ccc2c(c1)OCO2
AC50 (HepG2): 14 µM (active)

Cc1ccc(C(=O)NC2=C(c3ccc(OC(F)(F)F)cc3)C(=O)c3ccccc3C2=O)o1
AC50 [30]: 21.3 µM (active)
AC50 [31]: 33.4 µM (active)

COc1c(NC(=O)C(=O)c2ccc(OCCN3CCOCC3)c3ccccc23)cc(C(C)(C)C)cc1NS(C)(=O)=O [ITX-5061 FREE BASE]
AC50 [32]: 11.4 nM (active)
AC50 [22]: 0.146 µM (active)

O=C(Nc1ccc(Cl)cc1)N1C[C@H]2[C@@H](c3ccccc31)[C@H](CO)N2CC1CCCC1
AC50 [33]: 40.4 µM (active)
AC50 [34]: 35.8 µM (active)
AC50 [35]: 47.5 µM (active)

COc1ccc(NC(=O)c2coc(=O)c(Br)c2)cc1
IC50 [36]: 8.2 µM (active)
IC50 [37]: 2.4 µM (active)

COc1cccc(-c2ccc([C@@H]3[C@@H]4CN(S(=O)(=O)c5cccc(OC)c5)C[C@H]3N4)cc2)c1
AC50 [38]: 13.5 µM (active)

CCOC(=O)c1cc2c(=O)n3ccccc3nc2n(Cc2ccc(Cl)cc2)c1=N
EC50 [39]: > 99 µM (inactive)
EC50 [40]: > 99 µM (inactive)
AC50 (cells [41]): 1.99 µM (active)

— ChEMBL document CHEMBL1201862, “PubChem BioAssay data set” (2004)
